What was measured:
HRV2 2A Proteinase [1] = molecular target: T1, HRV2 2A Proteinase (Human rhinovirus 2, UniProt P04936); assay: In vitro translation of capped pLink-2C RNA in rabbit reticulocyte lysate pretreated with 2A preparation, with inhibitor; format: biochemical; conditions: 2A Präparation treated with 0,5 mM Elastatinal, Figur 8B, Spur 8
T1 construct: allen 142 Aminosäuren der 2A Proteinase von HRV2 und 2 Stoppcodons; N-terminal leader: first 14 aa of T7 gene 10 protein + last 7 aa of HRV2 VP1 (removed by self-cleavage) (N, cleaved yes); made in house; host or cells: E. coli BL21(DE3)LysS, plasmid pET/2A; 30 % ammonium sulfate precipitate
T1 sequence (P04936 851-992): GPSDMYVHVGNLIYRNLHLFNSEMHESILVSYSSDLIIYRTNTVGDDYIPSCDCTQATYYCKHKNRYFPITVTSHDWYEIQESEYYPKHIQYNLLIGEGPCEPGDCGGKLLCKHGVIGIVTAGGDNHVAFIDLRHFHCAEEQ
Procedure: In vitro Transkription dieser Plasmide nach Linearisierung mit BamHI mittels T7 RNA Polymerase wurde wie beschrieben (Duechler et al. (1989), loc. cit.) durchgeführt. Für die Synthese von RNA mit Cap-Struktur wird dem Transkriptionsansatz ⁷mGpppG und GTP zugesetzt. Zum Beispiel kann der von Duechler et al. (1989, loc. cit.) beschriebene Reaktionsansatz 1 mM 7MeGppG und 250 µm GTP enthalten. Am Ende der Reaktionszeit wurde die DNA durch Zugabe von DNase I (RNAse-frei, Boehringer Mannheim) verdaut, die Proteine durch Phenolextraktion entfernt, und die RNA nach Zugabe von einem Drittel Volumen 8 M Ammoniumacetat mit Ethanol gefällt. Nach nochmaliger Fällung mit Ethanol wurde die RNA anschließend in Wasser aufgenommen und ein Aliquot durch Agarosegelelektrophorese auf Qualität überprüft. Der Laufpuffer enthielt 1% SDS. Für die in vitro Translation wurde jeweils 1 µg dieser RNAs eingesetzt. Die Reaktion enthielt in 20 µl 90 mM KCl, 0.3 mM MgCl₂, 10 mM Kreatinphosphat, 2 µl ³⁵S-Trans-Label (ICN; 10 µCi/µl, 1000 Ci/mmol) und 11,5 µl Kaninchenreticulocytenlysat, das mit Micrococcal Nuclease (Sigma) behandelt worden war. Das Kaninchenreticulocytenlysat wurde nach der Methode von Jackson, R. und Hunt, T. (Meth. Enzymol. (1983) 96, 50 - 74) durch Behandlung mit Micrococcal Nuclease hergestellt. […]

HRV2 2A Proteinase [2] = molecular target: T1, HRV2 2A Proteinase; assay: In vitro translation of globin RNA in HeLa cell extract pretreated with 2A proteinase, with inhibitor; format: biochemical; conditions: 2A Proteinase preincubated with 0,5 mM Elastatinal, Fig. 16C, Spur 4
Procedure: Zur Herstellung eines HeLa-Zellextraktes wurde eine 1 l HeLa-Suspensionkultur (z.B. HeLa S3 (03-157, FLOWLABS) oder HeLa Ohio (03-147, FLOWLABS)), (ca. 4 x 10⁵ Zellen/ml) in halb-logarithmischer Phase abzentrifugiert (20 min, 1200 rpm), mit isotonischem Puffer gewaschen, durch mehrmaliges "Douncen" (40- bis 50-mal) aufgebrochen und die Zelltrümmer durch Zentrifugation (3 min, 3000 rpm) entfernt. Der Überstand wurde erneut zentrifugiert (20 min, 10000 rpm), das Pellet verworfen und der neue Überstand nochmals zentrifugiert (20 min, 13000 rpm). Der erhaltene Überstand wurde dann bei 4°C gegen Dialysepuffer (zweimal je 400 ml) dialysiert und nochmals 20 Minuten bei 13000 rpm zentrifugiert (20 min, 13000 rpm). Der Überstand (S 20-Extrakt) wurde portioniert und in flüssigem Stickstoff gelagert. isotonischer Puffer: 10 mM Hepes, pH 7,9, 140 mM KCl, 1,5 mM MgCl₂, 1 mM EDTA, 0,5 mM PMSF. Dialysepuffer: 0,1 M KCl, 20 % Glycerin, 20 mM Hepes, pH 7,9, 0,2 mM EDTA, 0,5 mM DTT, 0,5 mM PMSF.
1 ml Portionen des S 20-Extraktes wurden dann mit Micrococcal Nuclease (Boehringer Mannheim; Nr. 107921) behandelt, um die endogene RNA abzubauen: Zunächst wurde der Extrakt zentrifugiert (15 min, 4°C, 13000 rpm) und das Pellet verworfen. Zum Überstand (1 ml) wurden zugegeben: 1,2 µl 1 M CaCl₂ 1,5 µl 1 M MgOAc 16,0 µl Micrococcal Nuclease (15 U/µl). […]

2A = 2A (Human rhinovirus 2, UniProt P04936); conditions: Sommergruber et al. (1992); read-out: IC50 für 2A; cited from earlier work
2A, sequence (P04936 851-992): as above

HRV2 2A = molecular target: T2, HRV2 2A (Human rhinovirus 2, UniProt P04936); assay: Competition assay of peptide substrates against reference peptide P8-P8' (HPLC analysis of cleavage); format: biochemical; conditions: for Spaltbarkeit durch HRV2 2A (result in words): competition assay with P8-P8'
T2 construct: wurden mit einer reifen, rekombinanten HRV2 2A durchgeführt; made in house
T2 sequence (P04936 851-992): as above
Excerpt: Die Substratspezifitätsstudien, wie auch alle anderen Studien in diesem Beispiel, wurden mit einer reifen, rekombinanten HRV2 2A durchgeführt. Mittels Kompetitionsstudien unter Verwendung eines 16-mer Wildtyp-Peptidsubstrats (P8-P8') als Referenzpeptid wurde der jeweilige (Vmax/Km)rel-Wert für das mutierte Peptidsubstrat ermittelt. Das Peptid P8-P8' ([…]* […] (SEQ ID NO. 23)) entspricht der nativen Spaltstelle von HRV2 2A im Polyprotein ([…] ist der C-terminale Teil von VP1 und […] der N-Terminus von HRV2 2A). Dieses Peptid wird von der rekombinanten HRV2 2A intermolekular korrekt zwischen Ala und Gly prozessiert (Km-Wert: (5,4±0,02) x 10⁻⁴ Mol/l; Sommergruber et al., loc cit). […] Die Kompetitionsreaktion wurde durch Zugabe von 1 µl einer reinen (ca. 95%) HRV2 2A Stammlösung (2mg/ml in Puffer A + 0,05% NaN₃) gestartet. 50 µl Proben wurden jeweils nach 30, 60, 90, 120 und 150 sek bzw. nach 2, 4, 8, 16 und 32 min entnommen, in ein ULTRAFREE-MC Röhrchen (10,000 NMWL; Fa. Millipore) mit jeweils 250 µl 0,5 M HClO₄ transferriert (Reaktionsstop), gemischt und auf Eis gestellt (mindestens 15 min). Anschließend wurde die Lösung 30 min bei 14K, 4°C in einer SIGMA Eppendorfzentrifuge zentrifugiert. Das Filtrat wurde direkt zur HPLC Analyse eingesetzt. Peptidsubstrate und deren Spaltprodukte wurden entweder auf einem Kurzgradienten (5,5 min; 5,4% B/min; Merck Supersphere C18 Säule, 4x50 mm) oder einem Langgradienten (34,5 min; 0,8% B/min; Bakerbond WP C18 Säule, 4,6x250mm) aufgetrennt. Die Messung der UV Absorption wurde bei 210 nm und 280 nm durchgeführt. Die Spaltprodukte wurden mittels Komigration von Referenzpepetiden und/oder durch Proteinsequenzierung (Hunkapiller und Hood (1983) Science 219, 650-659) identifiziert. Der prozentuelle Anteil der Spaltung für jeden Zeitpunkt wurde durch Vergleich der Flächen der C- und N-terminalen Produktpeaks mit dem des verbliebenen ungespaltenen Peptidsubstrats ermittelt. Zusätzlich wurden die Daten graphisch ausgewertet, um etwaige Abweichungen vom klassischen Kurvenverlauf zu erkennen (z.B. sigmoide Kurve, allosterische Effekte etc.). Bei keinem der in Abb. 23 angeführten mutierten Peptidsubstrate konnte solch ein Effekt beobachtet werden. Für jedes Substrat und dessen Spaltprodukte war die Gesamtfläche der Peaks unabhängig vom Maß der Spaltung (< 5%). Für zwei Peptidsubstrate 1 und 2 ergeben sich in einem Kompetitionsassay nach Pallai et al. (Pallai et al. (1989) J. Biol. Chem. 264, 9738-9741) die (Vmax/Km)rel-Werte: (Vmax/Km)1/(Vmax/Km)2 = log(1-F1)/log(1-F2) [formula] wobei F der Anteil des umgesetzten Substrats ist. In allen Kompetitionsstudien waren Substrat- und Produktpeaks entweder auf dem langen oder dem kurzen bzw. auf beiden Gradienten über HPLC-Analyse voneinander trennbar. […]

host cell shut-off = assay: Inhibition of host cell shut-off (statement, test not described); conditions: statement only, no data given

Row | Compound | Effect on 2A-induced change of translation pattern (HRV2 2A Proteinase [1]) | Effect on 2A action on translation of Globin RNA (HRV2 2A Proteinase [2]) | IC50 (2A) | Competitive inhibition of HRV2 2A (HRV2 2A) | Spaltbarkeit durch HRV2 2A (result in words) (HRV2 2A) | Inhibition of host cell shut-off (host cell shut-off)
1 | CC(C)C[C@H](NC(=O)N[C@H](C(=O)N[C@@H](CCC(N)=O)C(=O)N[C@@H](C)C=O)[C@@H]1CCNC(=N)N1)C(=O)O [Elastatinal] | die Inhibition von 2A verhindert die Änderung der Translationseigenschaften | die 2A-Wirkung auf die Translation wird inhibiert | 50 µM | – | – | –
2 | p220-4: 16-mer Oligopeptid, Position im p220-Molekül 476-491 (SEQ ID NO. 125) (SEKGGEELLPPESTPI; UniProt Q04637 476-491, looked up, fragment) | – | – | – | wirken als kompetitive Inhibitoren | von HRV2 2A prozessiert werden können | in der Lage, den "host cell shut-off" zu inhibieren
3 | p220-3: 16-mer Oligopeptid, Position im p220-Molekül 737-752 (SEQ ID NO. 124) (SSKRTAADKDRGEEDA; UniProt Q04637 737-752, looked up, fragment) | – | – | – | wirken als kompetitive Inhibitoren | von HRV2 2A prozessiert werden können | in der Lage, den "host cell shut-off" zu inhibieren

— patent EP0564801A1, “Analysis of host cell shut-off” (BOEHRINGER INGELHEIM INTERNATIONAL GmbH, priority 1992, dated 1993)
